The data set is described as follows: Dissolution of dye powder in CP/DMSO 80/20 mixture. Type of data set: physicochemical. The note with it: stirred 24 hours at room temperature.

The values below come from US11332620B2, “Solution comprising a dye” (NOURYON CHEMICALS INTERNATIONAL B.V., priority 2018, dated 2022).

Molecules are shown by their SMILES.

For the compound `CCN(CCO)c1ccc(N=Nc2ccc([N+](=O)[O-])cc2)cc1` [Disperse Red 1, N-Ethyl-N-(2-hydroxyethyl)-4-(4-nitrophenylazo)aniline], the “Dissolution in CP/DMSO 80/20 mixture” value (2.5 gram powder in 22.5 grams CP/DMSO 80/20, followed by 4 hours at 40° C.) was “completely dissolved”.
Regarding `CC(=O)OCCN(CCC#N)c1ccc(N=Nc2nc3ccc([N+](=O)[O-])cc3s2)cc1` [Disperse Red 177, 2-((2-cyanoethyl)(4-((6-nitrobenzothiazol-2-yl)azo)phenyl)amino)ethyl acetate], the “Dissolution in CP/DMSO 80/20 mixture” value (2.5 grams powder in 22.5 grams CP/DMSO 80/20) is on record as “completely dissolved”.
